Source: ChEMBL document CHEMBL1909294, “Translating clinical findings into knowledge in drug safety evaluation--drug induced liver injury prediction system (DILIps)” (PLoS Comput Biol, 2011)

Columns and labels:
[1] = test system: Hepatotoxicity;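 as to HepSE bilirubinemia: bilirubinemia hepatic side effect score drawn from the DILIps training data, a prediction system for drug-induced liver injury; call rule not given here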;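 as to HepSE cholecystitis: Cholecystitis-related hepatic side effect score drawn from the DILIps (drug-induced liver injury prediction) training data set; call rule not given here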;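 as to HepSE cholelithiasis: hepatic side effect score for cholelithiasis, drawn from the DILIps training data for predicting drug-induced liver injury; call rule not given here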;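 as to HepSE cirrhosis: cirrhosis hepatic side effect score taken from the DILIps (drug-induced liver injury prediction) training set; call rule not given here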; as to HepSE hepatic failure: call rule not given here;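 as to HepSE jaundice: Jaundice-related hepatic side-effect score drawn from the training data of the DILIps (drug-induced liver injury prediction system); call rule not given here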; as to HepSE liver disease: call rule not given here
[2] = test system: Hepatotoxicity; remark: listed apart in the source;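 as to HepSE bilirubinemia: bilirubinemia hepatic side effect score drawn from the DILIps training data, a prediction system for drug-induced liver injury; call rule not given here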;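 as to HepSE cholecystitis: Cholecystitis-related hepatic side effect score drawn from the DILIps (drug-induced liver injury prediction) training data set; call rule not given here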;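 as to HepSE cholelithiasis: hepatic side effect score for cholelithiasis, drawn from the DILIps training data for predicting drug-induced liver injury; call rule not given here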;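 as to HepSE cirrhosis: cirrhosis hepatic side effect score taken from the DILIps (drug-induced liver injury prediction) training set; call rule not given here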; as to HepSE hepatic failure: call rule not given here;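 as to HepSE jaundice: Jaundice-related hepatic side-effect score drawn from the training data of the DILIps (drug-induced liver injury prediction system); call rule not given here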; as to HepSE liver disease: call rule not given here
[3] = test system: Hepatotoxicity; remark: listed apart in the source;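 as to HepSE bilirubinemia: bilirubinemia hepatic side effect score drawn from the DILIps training data, a prediction system for drug-induced liver injury; call rule not given here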;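 as to HepSE cholecystitis: Cholecystitis-related hepatic side effect score drawn from the DILIps (drug-induced liver injury prediction) training data set; call rule not given here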;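 as to HepSE cholelithiasis: hepatic side effect score for cholelithiasis, drawn from the DILIps training data for predicting drug-induced liver injury; call rule not given here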;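 as to HepSE cirrhosis: cirrhosis hepatic side effect score taken from the DILIps (drug-induced liver injury prediction) training set; call rule not given here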; as to HepSE hepatic failure: call rule not given here;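 as to HepSE jaundice: Jaundice-related hepatic side-effect score drawn from the training data of the DILIps (drug-induced liver injury prediction system); call rule not given here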; as to HepSE liver disease: call rule not given here
[4] = test system: Hepatotoxicity; remark: listed apart in the source;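 as to HepSE bilirubinemia: bilirubinemia hepatic side effect score drawn from the DILIps training data, a prediction system for drug-induced liver injury; call rule not given here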;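 as to HepSE cholecystitis: Cholecystitis-related hepatic side effect score drawn from the DILIps (drug-induced liver injury prediction) training data set; call rule not given here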;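 as to HepSE cholelithiasis: hepatic side effect score for cholelithiasis, drawn from the DILIps training data for predicting drug-induced liver injury; call rule not given here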; as to HepSE hepatic failure: call rule not given here;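 as to HepSE jaundice: Jaundice-related hepatic side-effect score drawn from the training data of the DILIps (drug-induced liver injury prediction system); call rule not given here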; as to HepSE liver disease: call rule not given here
[5] = test system: Hepatotoxicity; remark: listed apart in the source; as to HepSE hepatic failure: call rule not given here; as to HepSE liver disease: call rule not given here
[6] = test system: Hepatotoxicity; remark: listed apart in the source; as to HepSE hepatic failure: call rule not given here; as to HepSE liver disease: call rule not given here
[7] = test system: Hepatotoxicity; remark: listed apart in the source
[8] = test system: Hepatotoxicity; remark: listed apart in the source
[9] = test system: Hepatotoxicity; remark: listed apart in the source
[10] = test system: Hepatotoxicity; remark: listed apart in the source
[11] = test system: Hepatotoxicity; remark: listed apart in the source
[12] = test system: Hepatotoxicity; remark: listed apart in the source
[13] = test system: Hepatotoxicity; remark: listed apart in the source
[14] = test system: Hepatotoxicity; remark: listed apart in the source

Compound	HepSE_cholelithiasis [1]	HepSE_liver disease [2]	HepSE_bilirubinemia [3]	HepSE_hepatic failure [4]	HepSE_cholecystitis [5]	HepSE_jaundice [6]	HepSE_hepatic necrosis [7]	HepSE_cirrhosis [8]	HepSE_hepatitis [9]	HepSE_elevated liver function tests [10]	HepSE_hepatomegaly [11]	HepSE_Combined Scores [12]	HepSE_liver function tests abnormal [13]	HepSE_liver fatty [14]	further results
CO/N=C1\CN(c2nc3c(cc2F)c(=O)c(C(=O)O)cn3C2CC2)CC1CN (configuration not stated) [GEMIFLOXACIN]	0	0	1	0	0	1	0	0	1	0	0	3	0	0	
CN(C)CC/C=C1/c2ccccc2COc2ccc(CC(=O)O)cc21 [OLOPATADINE]	0	0	0	0	0	0	0	0	0	0	0	0	0	0	
Nc1ccn([C@@H]2O[C@H](CO)[C@@H](O)[C@@H]2O)c(=O)n1 [CYTARABINE]															HepSE_cholelithiasis ([1]; Liver): 0; HepSE_liver disease ([2]; Liver): 0; HepSE_bilirubinemia ([3]; Liver): 1; HepSE_hepatic failure ([4]; Liver): 0; HepSE_cholecystitis ([5]; Liver): 0; HepSE_jaundice ([6]; Liver): 1; HepSE_hepatic necrosis ([7]; Liver): 0; HepSE_cirrhosis ([8]; Liver): 0; HepSE_hepatitis ([9]; Liver): 0; HepSE_elevated liver function tests ([10]; Liver): 0; HepSE_hepatomegaly ([11]; Liver): 0; HepSE_Combined Scores ([12]; Liver): 2; HepSE_liver function tests abnormal ([13]; Liver): 0; HepSE_liver fatty ([14]; Liver): 0
N[C@@H]1CON=C1O [CYCLOSERINE]	0	1	0	0	0	0	0	0	0	0	0	1	0	0	
CCNC(=O)CCC/C=C\C[C@@H]1[C@@H](/C=C/[C@@H](O)CCc2ccccc2)[C@H](O)C[C@@H]1O [BIMATOPROST]	0	0	0	0	0	0	0	0	0	0	0	1	1	0	
CCOCCn1c(N2CCCN(C)CC2)nc2ccccc21 [EMEDASTINE]	0	0	0	0	0	0	0	0	0	0	0	0	0	0	
Nc1ccn([C@@H]2O[C@H](CO)[C@@H](O)C2(F)F)c(=O)n1 [GEMCITABINE]	0	0	0	1	0	0	0	0	0	0	0	1	0	0	
Cc1cn([C@H]2C=C[C@@H](CO)O2)c(=O)[nH]c1=O [STAVUDINE]	0	1	1	1	0	0	0	0	1	0	0	5	0	1	
NS(=O)(=O)c1cc2c(cc1C(F)(F)F)NCNS2(=O)=O [HYDROFLUMETHIAZIDE]	0	0	0	0	0	1	0	0	0	0	0	1	0	0	
CC(C)(C)NCC(O)c1cc(O)cc(O)c1 (configuration not stated) [TERBUTALINE]	0	0	0	0	0	0	0	0	0	0	0	0	0	0	
COC(=O)C(c1ccccc1)C1CCCCN1 (configuration not stated) [METHYLPHENIDATE]	0	0	0	0	0	0	0	0	0	0	0	1	1	0	
CCCCN(CCCC)CCC(O)c1cc2c(Cl)cc(Cl)cc2c2cc(C(F)(F)F)ccc12 (configuration not stated) [HALOFANTRINE]	0	0	0	0	0	0	0	0	0	0	0	0	0	0	
O=c1[nH]cc(F)c(=O)[nH]1 [FLUOROURACIL]	0	0	0	0	0	0	0	0	0	0	0	0	0	0	
C[C@@H](O[C@H]1OCCN(Cc2n[nH]c(=O)[nH]2)[C@H]1c1ccc(F)cc1)c1cc(C(F)(F)F)cc(C(F)(F)F)c1 [APREPITANT]	0	0	0	0	0	0	0	0	0	0	0	0	0	0	
CC(=O)[C@H]1CC[C@H]2[C@@H]3CCC4=CC(=O)CC[C@]4(C)[C@H]3CC[C@]12C [PROGESTERONE]	0	0	0	1	0	1	1	0	1	0	0	4	0	0	
CCCC(C)C1(CC)C(=O)NC(=O)NC1=O (configuration not stated) [PENTOBARBITAL]	0	0	0	0	0	0	0	0	0	0	0	0	0	0	
C=CC[N+]1([C@H]2C[C@H]3[C@@H]4CC[C@H]5C[C@H](O)[C@@H](N6CCOCC6)C[C@]5(C)[C@H]4CC[C@]3(C)[C@H]2OC(C)=O)CCCC1 [ROCURONIUM]	0	0	0	0	0	0	0	0	0	0	0	0	0	0	
O=C1CN2Cc3c(ccc(Cl)c3Cl)N=C2N1 [ANAGRELIDE]	0	0	0	0	0	0	0	0	0	1	0	1	0	0	
